The results in this text go back to patent publication US11389569B2, “Biodegradable, porous, thermally responsive injectable hydrogel as soft tissue defect filler” (University of Pittsburgh—Of the Commonwealth System of …, priority 2017, dated 2022).

A short description of data set [1]: Mannitol particle size, initially and after mixing with VP10 hydrogel solution. The class given is physicochemical. An excerpt:
All chemicals were purchased from Sigma-Aldrich unless otherwise stated. N-isopropylacrylamide (NIPAAm) was purified by recrystallization from hexane and vacuum-dried. 2-Hydroxyethyl methacrylate (HEMA) was purified by vacuum distillation. Vinylpyrrolidone (VP), lactide, benzoyl peroxide (BPO), sodium methoxide (NaOCH3), methacryloyl chloride, methacrylic acid (MAA) and other solvents were used as received. D-mannitol particles were sieved to obtain the portion between 170 and 230 meshes.

The subject of the next data set is SMCs. The data set can be described thus: Cytotoxicity and proliferation of SMCs (mitochondrial activity assay). Format: cell-based. The conditions noted are these: dissolved mannitol.

Consider `OC[C@@H](O)[C@@H](O)[C@H](O)[C@H](O)CO` [mannitol, D-mannitol], for which the “particle size change after mixing with hydrogel solution” value in data set [1] (mixed with VP10 hydrogel solution for 10 min) was “did not decrease significantly”. The “initial size of sieved mannitol particles” value in data set [1] (sieved, 170-230 mesh) turned out to be 68.0 μm. Further, the “concentration up to which no cytotoxicity was shown” value with SMCs is “up to 100 mM”.
